Assay results: ChEMBL document CHEMBL3877311, “Discovery of a novel series of N-hydroxypyridone derivatives protecting astrocytes against hydrogen peroxide-induced toxicity via improved mitochondrial functionality” (Bioorg Med Chem, 2017)
The source made the active and inactive calls. The rule behind the calls is not given here.

Legend:
[1] = Induction of mitochondrial membrane depolarization in Sprague-Dawley rat primary astrocytes at 1 uM measured every 5 mins for 2 hrs by TMRM dye based fluorescence assay; format: cell-based; conditions: astrocyte
Astrocyte [2] = test: Cytoprotective activity in Sprague-Dawley rat primary astrocytes assessed as inhibition of H2O2-induced mitochondrial membrane depolarization at 1 uM measured every 5 mins for 2 hrs by TMRM dye based fluorescence assay; format: functional, cell-based
[3] = Effect on basal extracellular acidification rate in Sprague-Dawley rat primary astrocytes at 1 uM; format: ADME, cell-based; conditions: astrocyte
Astrocyte [4] = test: Inhibition of H2O2-induced mitochondrial metabolic dysfunction in Sprague-Dawley rat primary astrocytes assessed as stimulation of glycolytic metabolism at 1 uM; format: functional, cell-based
[5] = Effect on basal oxygen consumption rate in Sprague-Dawley rat primary astrocytes at 1 uM; format: ADME, cell-based; conditions: astrocyte
Astrocyte [6] = test: Inhibition of H2O2-induced mitochondrial metabolic dysfunction in Sprague-Dawley rat primary astrocytes by resazurin-dye based presto blue assay; format: functional, cell-based
Rattus norvegicus = species: Rattus norvegicus; test: Cytotoxicity against Sprague-Dawley rat primary astrocytes assessed as cell death up to 10 uM by LDH release assay; format: toxicity; conditions: astrocyte
Astrocyte [7] = test: Inhibition of H2O2-induced mitochondrial metabolic dysfunction in Sprague-Dawley rat primary astrocytes assessed as stimulation of extracellular acidification rate at 1 uM; format: functional, cell-based
[8] = Effect on ATP turn over-linked oxygen consumption rate in Sprague-Dawley rat primary astrocytes at 1 uM; format: ADME, cell-based; conditions: astrocyte
[9] = Cytoprotective activity in Sprague-Dawley rat primary astrocytes assessed as inhibition of H2O2-induced cell death at 0.001 to 10 uM by LDH release assay relative to control; format: functional, Astrocyte
Astrocyte [10] = test: Cytoprotective activity in Sprague-Dawley rat primary astrocytes assessed as inhibition of H2O2-induced decrease in oxygen consumption rate at 1 uM; format: functional, cell-based
Astrocyte [11] = test: Inhibition of H2O2-induced mitochondrial metabolic dysfunction in Sprague-Dawley rat primary astrocytes at 0.001 to 10 uM by resazurin-dye based presto blue assay relative to control; format: functional
[12] = Cytoprotective activity in Sprague-Dawley rat primary astrocytes assessed as inhibition of H2O2-induced cell death by LDH release assay; format: functional, cell-based; conditions: Astrocyte

| Structure (SMILES) | Activity [1] | inhibition (Astrocyte [2]) | Activity [3] | inhibition (Astrocyte [4]) | Activity [5] | IC50 (Astrocyte [6]) [µM] | Activity (Rattus norvegicus) | inhibition (Astrocyte [7]) | Activity [8] | Imax [9] [%] | inhibition (Astrocyte [10]) | Imax (Astrocyte [11]) [%] | IC50 [12] [µM] |
| --- | --- | --- | --- | --- | --- | --- | --- | --- | --- | --- | --- | --- | --- |
| COc1ccccc1-c1ccc(-c2cc(C)cc(=O)n2O)cc1 | Non-Toxic | Active | Non-Toxic | Active | Non-Toxic | 0.34 | Non-Toxic | Active | Non-Toxic | 58.8 | Active | 58.6 | 0.156 |
| Cc1cc(-c2cccc(F)c2)n(O)c(=O)c1 | – | – | – | – | – | – | – | – | – | – | – | 0.75 | – |
| Cc1cc(C2CCCCC2)n(O)c(=O)c1 [CICLOPIROX] | – | Active | – | – | – | 0.33 | – | – | – | 50.3 | – | 43.72 | 0.25 |
